This is an account of results in patent US8258151B2, “3-aminoimidazo [1,2-A] pyridine derivatives as SGLT inhibitors” (Merck Patent GmbH, priority 2006, dated 2012).

One assay deals with T1, SGLT2 (Homo sapiens, UniProt P31639).
T1 construct: expressed in transfected cells
T1 sequence (P31639 1-672): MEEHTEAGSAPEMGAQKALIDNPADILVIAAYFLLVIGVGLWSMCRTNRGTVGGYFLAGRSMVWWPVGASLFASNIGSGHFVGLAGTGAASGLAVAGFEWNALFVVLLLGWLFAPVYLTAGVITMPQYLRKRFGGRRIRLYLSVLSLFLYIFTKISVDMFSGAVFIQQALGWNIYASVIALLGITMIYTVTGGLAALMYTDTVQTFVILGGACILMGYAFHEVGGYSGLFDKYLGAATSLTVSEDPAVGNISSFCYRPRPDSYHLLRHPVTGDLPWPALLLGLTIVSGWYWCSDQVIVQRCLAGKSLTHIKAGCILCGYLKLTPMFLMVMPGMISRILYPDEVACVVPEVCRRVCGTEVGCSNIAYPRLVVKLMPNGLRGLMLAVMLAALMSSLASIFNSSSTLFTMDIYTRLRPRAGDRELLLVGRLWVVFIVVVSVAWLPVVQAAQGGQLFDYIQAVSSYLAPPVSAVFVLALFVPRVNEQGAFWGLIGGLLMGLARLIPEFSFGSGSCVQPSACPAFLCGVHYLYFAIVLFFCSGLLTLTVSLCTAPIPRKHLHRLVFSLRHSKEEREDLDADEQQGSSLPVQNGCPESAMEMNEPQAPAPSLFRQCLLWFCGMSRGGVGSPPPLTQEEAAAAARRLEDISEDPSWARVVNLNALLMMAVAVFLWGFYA
In words: SGLT2 activity measurement: 14C-AMG uptake in BHK cells transfected with SGLT2. Format: cell-based. Conditions: AMG 2 mM, 37° C., 90 min. The essentials:
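BHK21 cells stably expressing human SGLT2 took up 14C-AMG (added as 2 mM solution) ± compound for 90 min at 37 °C in Na+-containing HEPES/Tris buffer, pH 7.4. Uptake was measured by scintillation counting after lysis. Non-specific uptake was defined in sodium-free sucrose buffer.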

The next assay addresses T2, SGLT1 (Homo sapiens, UniProt P13866).
T2 construct: expressed in transfected cells
T2 sequence (P13866 1-664): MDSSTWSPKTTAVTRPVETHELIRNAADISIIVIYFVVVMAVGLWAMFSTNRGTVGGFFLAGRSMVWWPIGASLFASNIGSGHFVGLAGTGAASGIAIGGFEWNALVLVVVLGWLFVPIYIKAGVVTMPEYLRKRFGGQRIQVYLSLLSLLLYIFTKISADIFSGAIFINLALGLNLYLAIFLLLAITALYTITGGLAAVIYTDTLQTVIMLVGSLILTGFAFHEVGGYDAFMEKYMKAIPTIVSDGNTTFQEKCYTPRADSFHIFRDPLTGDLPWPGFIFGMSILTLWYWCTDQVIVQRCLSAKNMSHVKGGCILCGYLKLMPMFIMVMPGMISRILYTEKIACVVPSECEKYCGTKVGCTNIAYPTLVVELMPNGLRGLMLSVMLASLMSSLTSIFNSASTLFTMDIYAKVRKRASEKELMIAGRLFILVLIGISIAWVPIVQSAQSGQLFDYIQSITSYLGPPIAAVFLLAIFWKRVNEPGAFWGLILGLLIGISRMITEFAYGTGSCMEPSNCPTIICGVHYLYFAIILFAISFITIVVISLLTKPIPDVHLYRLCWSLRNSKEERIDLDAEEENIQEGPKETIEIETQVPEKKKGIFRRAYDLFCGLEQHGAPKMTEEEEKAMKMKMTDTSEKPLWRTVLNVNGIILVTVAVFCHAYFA
Nature of the assay: SGLT1 activity measurement: 14C-AMG uptake in BHK cells transfected with SGLT1. Format: cell-based. Conditions: AMG 50 μM, 37° C., 90 min. The essentials:
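BHK21 cells stably transfected with human SLC5A1 were incubated with 14C-AMG (added solution at 50 μM) ± compound for 90 min at 37 °C. The buffer was 140 mM NaCl, HEPES/Tris, pH 7.4. Lysed-cell radioactivity was counted by scintillation, and non-specific uptake was measured in sodium-free sucrose buffer.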

What is called IC50 is the concentration that inhibits the measured activity by half. Read a high IC50 as weaker potency.

Regarding `COc1ccc(-c2nc3ccc(F)cn3c2Nc2c(C)cc(F)cc2C)c(OCC(N)=O)c1` [Compound A212, 2-[2-(Aminocarbonylmethoxy)-4-methoxy-phenyl]-3-(2,6-dimethyl-4-fluorophenylamino)-6-fluoroimidazo[1,2-a]pyridine], the figures for the IC50 at SGLT2 and against SGLT1 were 10 to 1000 nM and more than 10000 nM, respectively.
The matching figures for `Cc1cccc(C)c1Nc1c(-c2c(C)cc(OS(=O)(=O)N(C)C)cc2OCC(N)=O)nc2ccc(F)cn12` [Compound A213]: 10 to 1000 nM and more than 10000 nM.
Consider `COc1cc(C)c(-c2nc3ccc(F)cn3c2Nc2c(C)cccc2OC)c(OCC(N)=O)c1` [Compound A214, 2-[2-(Aminocarbonylmethoxy)-4-methoxy-6-methylphenyl]-3-(2-methoxy-6-methylphenyl-amino)-6-fluoroimidazo[1,2-a]pyridine], for which the results for the IC50 against SGLT2 and at SGLT1 were 10 to 1000 nM and more than 10000 nM, respectively.
`CCc1cc(OC)cc(OCC(N)=O)c1-c1nc2ccc(F)cn2c1Nc1c(C)cccc1OC` [Compound A215, 2-[2-(Aminocarbonylmethoxy)-4-methoxy-6-ethylphenyl]-3-(2-methoxy-6-methylphenyl-amino)-6-fluoroimidazo[1,2-a]pyridine]: the IC50 against SGLT2 was 10 to 1000 nM; on SGLT1, more than 10000 nM.
The matching figures for `CCc1cc(OCC(O)CO)cc(OCC(N)=O)c1-c1nc2ccc(F)cn2c1Nc1c(C)cccc1C` (stereo not drawn) [Compound A216, 2-[2-(Aminocarbonylmethoxy)-4-(2,3-dihydroxy-propoxy)-6-ethylphenyl]-3-(2,6-dimethylphenyl-amino)-6-fluoroimidazo[1,2-a]pyridine]: 10 to 1000 nM and more than 10000 nM.
Consider `CCc1cc(OC)cc(OCC(N)=O)c1-c1nc2ccc(F)cn2c1Nc1c(C)ccc(Cl)c1C` [Compound A217, 2-[2-(Aminocarbonylmethoxy)-4-methoxy-6-ethylphenyl]-3-(3-chloro-2,6-dimethylphenyl-amino)-6-fluoroimidazo[1,2-a]pyridine], for which the half-maximal inhibitory concentration (IC50) fell in the range of 10 to 1000 nM on SGLT2 and 1000 to 10000 nM at SGLT1.
Take `COc1cc(C)c(-c2nc3ccc(F)cn3c2Nc2c(C)ccc(Cl)c2C)c(OCC(N)=O)c1` [Compound A218, 2-[2-(Aminocarbonylmethoxy)-4-methoxy-6-methylphenyl]-3-(3-chloro-2,6-dimethylphenyl-amino)-6-fluoroimidazo[1,2-a]pyridine]: the concentration for half-maximal inhibition (IC50) against SGLT2 fell in the range of 10 to 1000 nM; against SGLT1, 1000 to 10000 nM.
`COc1cc(C)c(-c2nc3ccc(F)cn3c2Nc2c(F)cccc2F)c(OCC(N)=O)c1` [Compound A219, 2-[2-(Aminocarbonylmethoxy)-4-methoxy-6-methylphenyl]-3-(2,6-difluorophenylamino)-6-fluoroimidazo[1,2-a]pyridine]: the results for the IC50 on SGLT2 and on SGLT1 were 10 to 1000 nM and 1000 to 10000 nM, respectively.
Consider `CCc1cc(OC)cc(OCC(N)=O)c1-c1nc2ccc(F)cn2c1Nc1c(F)cccc1F` [Compound A220, 2-[2-(Aminocarbonylmethoxy)-4-methoxy-6-ethylphenyl]-3-(2,6-difluorophenylamino)-6-fluoroimidazo[1,2-a]pyridine], for which the half-maximal inhibitory concentration (IC50) against SGLT2 was in the range of 10 to 1000 nM; at SGLT1, 1000 to 10000 nM.
On to `CCc1cc(OC)cc(OCC(N)=O)c1-c1nc2c(F)cc(F)cn2c1Nc1c(C)cccc1C` [Compound A221, 2-[2-(Aminocarbonylmethoxy)-4-methoxy-6-ethylphenyl]-3-(2,6-dimethylphenylamino)-6,8-difluoroimidazo[1,2-a]pyridine], for which the IC50 against SGLT2 is 10 to 1000 nM; at SGLT1, 1000 to 10000 nM.
Take `COc1cc(C)c(-c2nc3ccc(F)cn3c2Nc2c(C)cc(Cl)cc2C)c(OCC(N)=O)c1` [Compound A222, 2-[2-(Aminocarbonylmethoxy)-4-methoxy-6-methylphenyl]-3-(4-chloro-2,6-dimethylphenyl-amino)-6-fluoroimidazo[1,2-a]pyridine]: the figures for the IC50 against SGLT2 and against SGLT1 were 10 to 1000 nM and 1000 to 10000 nM, respectively.
As for `COc1cc(C)c(-c2nc3ccccn3c2Nc2c(Cl)cc(F)cc2Cl)c(OCC(N)=O)c1` [Compound A224, 2-[2-(Aminocarbonylmethoxy)-4-methoxy-6-methylphenyl]-3-(4-fluoro-2,6-dichlorophenyl-amino)imidazo[1,2-a]pyridine], the half-inhibitory concentration (IC50) is 10 to 1000 nM on SGLT2 and 1000 to 10000 nM against SGLT1.
Consider `COc1cc(C)c(-c2nc3c(F)cc(F)cn3c2Nc2c(Cl)cc(F)cc2Cl)c(OCC(N)=O)c1` [Compound A225, 2-[2-(Aminocarbonylmethoxy)-4-methoxy-6-methylphenyl]-3-(4-fluoro-2,6-dichlorophenyl-amino)-6,8-difluoroimidazo[1,2-a]pyridine], for which the IC50 on SGLT2 is 10 to 1000 nM; on SGLT1 it was 1000 to 10000 nM.
For `COc1cc(C)c(-c2nc3c(F)cc(F)cn3c2Nc2c(Cl)cccc2Cl)c(OCC(N)=O)c1` [Compound A226, 2-[2-(Aminocarbonylmethoxy)-4-methoxy-6-methylphenyl]-3-(2,6-dichlorophenylamino)-6,8-difluoroimidazo[1,2-a]pyridine], the IC50 against SGLT2 fell in the range of 10 to 1000 nM; on SGLT1 it was 1000 to 10000 nM.
For the compound `CCc1cc(OC)cc(OCC(N)=O)c1-c1nc2c(F)cc(F)c(N)n2c1Nc1c(C)cccc1C` [Compound A227, 2-[2-(Aminocarbonylmethoxy)-4-methoxy-6-ethylphenyl]-3-(2,6-dimethylphenylamino)-5-amino-6,8-difluoroimidazo[1,2-a]pyridine], the IC50 at SGLT2 was in the range of 10 to 1000 nM; on SGLT1, 1000 to 10000 nM.
Consider `CCc1cc(OS(=O)(=O)N(C)C)cc(OCC(N)=O)c1-c1nc2ccc(F)cn2c1Nc1c(C)cccc1C` [Compound A228, 2-[2-(Aminocarbonylmethoxy)-4-dimethyl-sulfamoyloxy-6-ethylphenyl]-3-(2,6-dimethyl-phenylamino)-6-fluoroimidazo[1,2-a]pyridine], for which the values for the IC50 at SGLT2 and on SGLT1 were 10 to 1000 nM and more than 10000 nM, respectively.
The matching figures for `COc1cc(C)c(-c2nc3ccc(F)cn3c2Nc2ccc(F)cc2F)c(OCC(N)=O)c1` [Compound A229, 2-[2-(Aminocarbonylmethoxy)-4-methoxy-6-methylphenyl]-3-(2,4-difluorophenylamino)-6-fluoroimidazo[1,2-a]pyridine]: 1000 to 10000 nM and more than 10000 nM.
Turning to `CCc1cc(OCC(N)=O)cc(OCC(N)=O)c1-c1nc2ccc(F)cn2c1Nc1c(C)cccc1C` [Compound A230, 2-[2-(Aminocarbonylmethoxy)-4-(amino-carbonylmethoxy)-6-ethylphenyl]-3-(2,6-dimethylphenylamino)-6-fluoroimidazo[1,2-a]-pyridine], the IC50 against SGLT2 was 10 to 1000 nM; at SGLT1, more than 10000 nM.
`COc1cc(OCC(N)=O)c(-c2nc3ccc(F)cn3c2Nc2c(C)cccc2C)c(C)c1Cl` [Compound A231, 2-[2-(Aminocarbonylmethoxy)-5-chloro-4-methoxy-6-methylphenyl]-3-(2,6-dimethylphenyl-amino)-6-fluoroimidazo[1,2-a]pyridine]: the IC50 at SGLT2 was 10 to 1000 nM; against SGLT1, 1000 to 10000 nM.
`COc1cc(C)c(-c2nc3ccc(F)cn3c2Nc2c(C)cccc2[N+](=O)[O-])c(OCC(N)=O)c1` [Compound A232, 2-[2-(Aminocarbonylmethoxy)-4-methoxy-6-methylphenyl]-3-(2-methyl-6-nitrophenylamino)-6-fluoroimidazo[1,2-a]pyridine]: the IC50 lay in the range of 10 to 1000 nM against SGLT2 and 1000 to 10000 nM against SGLT1.
Consider `COc1cc(C)c(-c2nc3ccc(F)cn3c2Nc2c(Br)cccc2Br)c(OCC(N)=O)c1` [Compound A233, 2-[2-(Aminocarbonylmethoxy)-4-methoxy-6-methylphenyl]-3-(2,6-dibromophenylamino)-6-fluoroimidazo[1,2-a]pyridine], for which the IC50 against SGLT2 is 10 to 1000 nM; at SGLT1 it was more than 10000 nM.
